According to patent US20200316083A1, “ANTIBACTERIAL COMPOSITIONS” (WOCKHARDT LIMITED, priority 2016, published 2020):

Columns and labels:
Format in all cases: cell-based
[1] = system: K. pneumoniae B-88 producing metallo beta-lactamase enzymes; experiment: Time kill study against K. pneumoniae B-88
Experimental: (§1) In general, the antibacterial activity of compositions according to invention was studied by performing time kill studies. In a typical time kill study, the freshly grown cultures were diluted to the required cell density (initial starting inoculum) in cation adjusted Muller Hinton broth medium (BD, USA). The antibacterial agents (either alone or in combination) at the required concentrations were added into the culture-containing medium. The samples were incubated under shaking condition (120 rpm) at 37° C. Enumeration of viable bacterial count was done every 2 hour by diluting in normal saline and plating on to the Tryptic Soya Agar plates (BD, USA). The plates were incubated for 24 hours to arrive at a viable bacterial count. The results are expressed in terms of log10 CFU/ml. In general, the decrease of 1 log10 CFU/ml corresponds to 90% killing of bacteria. Similarly, 2 log10 CFU/ml reductions indicates to 99% killing of bacteria and 3 log10 CFU/ml reductions is equal to 99.9% killing of bacteria.

[2] = system: E. coli 7MP producing Class A and Class C beta-lactamase enzymes; experiment: Time kill study against E. coli 7MP; details: for Effect on bacterial count (in words): alone or in combination
Experimental: as §1

[3] = system: A. baumanni 13301 producing Carbapenem hydrolysing beta-lactamase enzymes; experiment: Time kill study against A. baumanni 13301
Experimental: as §1

Compound: CC(C)(O/N=C(\C(=O)N[C@@H]1C(=O)N2C(C(=O)[O-])=C(C[N+]3(CCNC(=O)c4ccc(O)c(O)c4Cl)CCCC3)CS[C@H]12)c1csc(N)n1)C(=O)O [Compound of Formula (I), (6R,7R)-7-[(2Z)-2-(2-amino-1,3-thiazol-4-yl)-2-{[(2-carboxypropan-2-yl)oxy]imino}acetamido]-3-({1-[2-(2-chloro-3,4-dihydroxybenzamido)ethyl]pyrrolidin-1-ium-1-yl}methyl)-8-oxo-5-thia-1-azabicyclo[4.2.0]oct-2-ene-2-carboxylate]
- Bacterial count (Log10 CFU/ml) 0 hours ([1]; 0.25 mcg/ml alone): 7.28 Log10 CFU/ml
- Bacterial count (Log10 CFU/ml) 0 hours ([1]; 0.5 mcg/ml alone): 7.28 Log10 CFU/ml
- Change in Log10 CFU/ml over 0 hour count after 24 hours ([1]; 0.25 mcg/ml alone): −0.47 Log10 CFU/ml
- Change in Log10 CFU/ml over 0 hour count after 24 hours ([1]; 0.5 mcg/ml alone): −0.98 Log10 CFU/ml
- Bacterial count (Log10 CFU/ml) 2 hours ([1]; 0.25 mcg/ml alone): 6.74 Log10 CFU/ml
- Bacterial count (Log10 CFU/ml) 2 hours ([1]; 0.5 mcg/ml alone): 6.18 Log10 CFU/ml
- Bacterial count (Log10 CFU/ml) 4 hours ([1]; 4 hours, 0.5 mcg/ml alone): 5.85 Log10 CFU/ml
- Bacterial count (Log10 CFU/ml) 6 hours ([1]; 0.25 mcg/ml alone): 6.70 Log10 CFU/ml
- Bacterial count (Log10 CFU/ml) 6 hours ([1]; 0.5 mcg/ml alone): 6.30 Log10 CFU/ml
- Bacterial count (Log10 CFU/ml) 24 hours ([1]; 0.25 mcg/ml alone): 6.81 Log10 CFU/ml
- Bacterial count (Log10 CFU/ml) 24 hours ([1]; 0.5 mcg/ml alone): 6.30 Log10 CFU/ml
- Effect on bacterial count (in words) ([1]; summary of Table 1, alone or in combination): could not reduce the bacterial count
- Change in Log10 CFU/ml over 0 hour count after 24 hours ([2]; Table 2, 0.25 mcg/ml alone): 2.12 Log10 CFU/ml
- Change in Log10 CFU/ml over 0 hour count after 24 hours ([2]; Table 2, 0.5 mcg/ml alone): 2.12 Log10 CFU/ml
- Bacterial count (Log10 CFU/ml) 2 hours ([2]; Table 2, 0.25 mcg/ml alone): 7.60 Log10 CFU/ml
- Bacterial count (Log10 CFU/ml) 2 hours ([2]; Table 2, 0.5 mcg/ml alone): 7.18 Log10 CFU/ml
- Bacterial count (Log10 CFU/ml) 4 hours ([2]; Table 2, 0.25 mcg/ml alone): 9.11 Log10 CFU/ml
- Bacterial count (Log10 CFU/ml) 4 hours ([2]; Table 2, 0.5 mcg/ml alone): 7.74 Log10 CFU/ml
- Bacterial count (Log10 CFU/ml) 6 hours ([2]; Table 2, 0.25 mcg/ml alone): 9.20 Log10 CFU/ml
- Bacterial count (Log10 CFU/ml) 6 hours ([2]; Table 2, 0.5 mcg/ml alone): 9.18 Log10 CFU/ml
- Bacterial count (Log10 CFU/ml) 24 hours ([2]; Table 2, 0.25 mcg/ml alone): 9.20 Log10 CFU/ml
- Bacterial count (Log10 CFU/ml) 24 hours ([2]; Table 2, 0.5 mcg/ml alone): 9.20 Log10 CFU/ml
- Change in Log10 CFU/ml over 0 hour count after 8 hours ([2]; Table 5, 1 mcg/ml alone): 1.57 Log10 CFU/ml
- Bacterial count (Log10 CFU/ml) 2 hours ([2]; Table 5, 1 mcg/ml alone): 7.15 Log10 CFU/ml
- Bacterial count (Log10 CFU/ml) 4 hours ([2]; Table 5, 1 mcg/ml alone): 6.60 Log10 CFU/ml
- Bacterial count (Log10 CFU/ml) 6 hours ([2]; Table 5, 1 mcg/ml alone): 7.90 Log10 CFU/ml
- Bacterial count (Log10 CFU/ml) 8 hours ([2]; Table 5, 8 hours, 1 mcg/ml alone): 8.65 Log10 CFU/ml
- Effect on bacterial count (in words) ([2]; summary of Table 2): could not reduce the bacterial count
- Effect on bacterial count (in words) ([2]; summary of Table 5, throughout the duration of the study): did not reduce the bacterial count
- Bacterial count (Log10 CFU/ml) 0 hours ([3]; 0 hours, 4 mcg/ml alone): 6.88 Log10 CFU/ml
- Change in Log10 CFU/ml over 0 hour count after 24 hours ([3]; 4 mcg/ml alone): 2.22 Log10 CFU/ml
- Bacterial count (Log10 CFU/ml) 2 hours ([3]; 2 hours, 4 mcg/ml alone): 4.85 Log10 CFU/ml
- Bacterial count (Log10 CFU/ml) 4 hours ([3]; 4 hours, 4 mcg/ml alone): 4.02 Log10 CFU/ml
- Bacterial count (Log10 CFU/ml) 6 hours ([3]; 6 hours, 4 mcg/ml alone): 5.18 Log10 CFU/ml
- Bacterial count (Log10 CFU/ml) 8 hours ([3]; 8 hours, 4 mcg/ml alone): 7.5 Log10 CFU/ml
- Bacterial count (Log10 CFU/ml) 24 hours ([3]; 24 hours, 4 mcg/ml alone): 9.10 Log10 CFU/ml
- Effect on bacterial count (in words) ([3]; summary of Table 3, alone or in combination): could not reduce the bacterial count
